Read-outs that look alike come from different tables or passages of the source.
Biological target: T1, human melatonin receptor (human ML1A) (Homo sapiens, UniProt P48039)
T1 construct: expressed in transfected cells; host or cells: COS-1 cells (transient, pcDNAI, DEAE-dextran); membrane homogenates
Experiment: Melatonergic binding: displacement of 2-[125I]-iodomelatonin at the human melatonin receptor (human ML1A in COS-1 membranes)
Details: displacement of 2[125I]-Iodomelatonin (100 pM), 37° C., 1 hour
Procedure: The melatonergic binding of the compounds of Formula I was determined by a modification of the method of Reppert, S. M. et al. (Neuron, Volume 13, pages 1177-1185, 1994). […] The reagents, membranes, and other parameters used in the assay are described below:
(a) 50 mM Tris buffer containing 12.5 mM MgCl2, and 2 mM EDTA (pH 7.4 at 37° C.).
(b) Wash buffer: 20 mM Tris base containing 2 mM MgCl2 (pH 7.4 at room temperature).
(c) 6-Chloromelatonin (10^-5 M final concentration).
(d) 2-[^125 I]-Iodomelatonin (100 pM final concentration). (Source: NEN) Membrane preparation: The cDNA (human ML1A) in pcDNAI was introduced into COS-1 cells by the DEAE-dextran method. Three days later, after media removal, the plates were washed with buffered saline; the cells removed using Hank's balanced salt solution and pelleted. The supernant was discarded and the pellets frozen. For membrane homogenates, the pellets were thawed and resuspended in TME buffer, Tris base, MgCl2, EDTA (pH 7.4 at 37° C.), and supplemented with aprotinin, leupeptin, and phenylmethylsulfonyl fluoride. The cells were homogenized and centrifuged; the resulting pellet resuspended in TME and frozen. At assay, the small aliquot was thawed on ice and resuspended in TME buffer. Incubation: 37° C. for 1 hour. Reaction is terminated by filtration.

T1 sequence (P48039 whole entry): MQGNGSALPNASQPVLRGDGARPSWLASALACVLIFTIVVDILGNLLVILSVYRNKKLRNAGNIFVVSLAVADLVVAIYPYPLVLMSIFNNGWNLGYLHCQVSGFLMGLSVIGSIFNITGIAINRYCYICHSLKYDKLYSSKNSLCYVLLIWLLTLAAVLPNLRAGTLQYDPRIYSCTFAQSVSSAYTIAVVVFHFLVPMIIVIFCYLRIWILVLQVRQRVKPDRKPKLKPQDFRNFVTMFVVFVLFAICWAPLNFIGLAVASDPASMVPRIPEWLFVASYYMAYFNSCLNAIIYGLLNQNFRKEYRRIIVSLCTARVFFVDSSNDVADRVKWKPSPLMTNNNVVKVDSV

| Structure (SMILES) | IC50 (Table 5) [nM] | other results |
| --- | --- | --- |
| CCCC(=O)NC[C@@H]1C[C@H]1c1cccc(OCCCCCCCc2ccccc2)c1 (relative stereo) [Example 46, (trans)-N-[[2-[3-[(7-Phenylheptyl)oxy]phenyl]cyclopropyl]methyl] butanamide] | 5 to 40 | – |
| CCCC(=O)NC[C@@H]1C[C@H]1c1cccc(OCC=C(C)CCC=C(C)CCC=C(C)C)c1 (relative stereo) [Example 103, (trans)-N-[[2-[3-[(3-,7,11-Trimethyldodeca-2,6,10-trien-1-yl)oxy]phenyl]cycloprop-1-yl]methyl] butanamide] | < 5 | – |
| CCCC(=O)NC[C@@H]1C[C@H]1c1cccc(CC)c1 (relative stereo) [Example 114, (trans)-N-[2-[(3-Ethylphenyl)cycloprop-1-yl]methyl] butanamide] | 5 to 40 | – |
| CCCC(=O)NC[C@@H]1C[C@H]1c1cccc(OCCCc2ccncc2)c1 (relative stereo) [Example 63] | 40 to 250 | – |
| CCCC(=O)NC[C@@H]1C[C@H]1c1cccc(OCCCn2cccc2)c1 (relative stereo) [Example 98] | 5 to 40 | – |
| CCCC(=O)NC[C@@H]1C[C@H]1c1cccc(OCCCC(=O)OC)c1 (relative stereo) [Example 108] | 40 to 250 | – |
| CCCC(=O)NC[C@@H]1C[C@H]1c1ccccc1 (single isomer, unassigned) [Example 90, (-)-(trans)-N-[(2-Phenylcycloprop-1-yl)methyl] butanamide] | 40 to 250 | – |
| [2H]C([2H])([2H])Oc1cccc([C@@H]2C[C@H]2CNC(=O)CCC)c1 (relative stereo) [Example 111, (trans)-N-[2-[(3-Trideuteromethoxyphenyl)cycloprop-1-yl]methyl] butanamide] | – | IC50 (read-out: Binding affinity (IC50) at the human melatonin receptor, Table 5): < 5 nM |
| CCCC(=O)NC[C@@H]1C[C@H]1c1cccc(OCCC=C(C)C)c1 (relative stereo) [Example 106, (trans)-N-[[2-[3-(4-Methyl-3-penten-1-yloxy)phenyl]cycloprop-1-yl]methyl] butanamide] | 5 to 40 | – |
| CCCC(=O)N(Cc1ccccc1)C[C@@H]1C[C@H]1c1cccc(OC)c1 (relative stereo) [Example 6, (trans)-N-[[2-(3-Methoxyphenyl)cyclopropyl]methyl]-N-(phenylmethyl) butanamide] | – | IC50 (Table 4): 40 to 250 nM |
| CCCC(=O)NC[C@@H]1C[C@H]1c1cccc(OCCCCC2CCCCC2)c1 (relative stereo) [Example 116] | 5 to 40 | – |
| CCCC(=O)NC[C@@H]1C[C@H]1c1cccc(OC)c1 (relative stereo) [Example 2, (trans)-N-[[2-(3-Methoxyphenyl)cyclopropyl]methyl] butanamide] | – | IC50 (Table 4): < 5 nM |
| COc1cccc([C@@H]2C[C@H]2CNC(=O)C(C)C)c1 (relative stereo) [Example 21] | – | IC50 (Table 4): 5 to 40 nM |
| CCCC(=O)NC[C@@H]1C[C@H]1c1cccc(OCCCOc2ccccc2)c1 (relative stereo) [Example 96, (trans)-N-[[2-[3[(3-Phenoxyprop-1-yl)oxy]phenyl]cycloprop-1-yl]methyl] butanamide] | 5 to 40 | – |
| CCCC(=O)NC[C@@H]1C[C@H]1c1cccc(OCCCc2cccc(OC)c2)c1 (relative stereo) [Example 62, (trans)-N-[[2-[3-[3-(3-Methoxyphenyl)propoxy]phenyl]cyclopropyl]methyl] butanamide] | 5 to 40 | – |
| CCCCCCCCCCOc1cccc([C@@H]2C[C@H]2CNC(=O)CCC)c1 (relative stereo) [Example 56, (trans)-N-[[2-[(3-Decyloxy)phenyl]cyclopropyl]methyl] butanamide] | 5 to 40 | – |
| CCC(=O)NC[C@@H]1C[C@H]1c1cccc(OC)c1 (relative stereo) [Example 18, (trans)-N-[[2-(3-Methoxyphenyl)cyclopropyl]methyl] propanamide] | – | IC50 (Table 4): < 5 nM |

| Structure (SMILES) | IC50 (Table 5) [nM] | other results |
| --- | --- | --- |
| CCCC(=O)NC[C@@H]1C[C@H]1c1cccc(OCC(C)C)c1 (relative stereo) [Example 61] | 250 to 600 | – |
| CCCC(=O)NC[C@@H]1C[C@H]1c1cccc(OCCc2ccccc2F)c1 (relative stereo) [Example 128, (trans)-N-[[2-[3-[2-(2-Fluorophenyl)ethoxy]phenyl]cycloprop-1-yl]methyl] butanamide] | 5 to 40 | – |
| CCCCCCCCCCCCCCCCOc1cccc([C@@H]2C[C@H]2CNC(=O)CCC)c1 (relative stereo) [Example 59] | 250 to 600 | – |
| CCCC(=O)NC[C@@H]1C[C@H]1c1cccc(OCCc2cccc(C(F)(F)F)c2)c1 (relative stereo) [Example 123, (trans)-N-[[2-[3-[2-[3-(Trifluoromethyl)phenyl]ethoxy]phenyl]cycloprop-1-yl]methyl] butanamide] | < 5 | – |
| CCCC(=O)NC[C@@H]1C[C@H]1c1cc(F)ccc1F (relative stereo) [Example 87, (trans)-N-[[2-(2,5-Difluorophenyl)cycloprop-1-yl]methyl] butanamide] | 40 to 250 | – |
| CCCCC(=O)NC[C@@H]1C[C@H]1c1cccc(OC)c1 (relative stereo) [Example 25] | – | IC50 (Table 4): 40 to 250 nM |
| CCCC(=O)NC[C@@H]1C[C@H]1c1cccc(OCCCC2CCCC2)c1 (relative stereo) [Example 120, (trans)-N-[[2-[3-[(3-Cyclopentylprop-1-yl)oxy]phenyl]cycloprop-1-yl]methyl] butanamide] | < 5 | – |
| COc1cccc([C@@H]2C[C@H]2CNC(C)=O)c1 (relative stereo) [Example 19, (trans)-N-[[2-(3-Methoxyphenyl)cyclopropyl]methyl] acetamide] | – | IC50 (Table 4): 5 to 40 nM |
| CCCCCCCCCCCCOc1cccc([C@@H]2C[C@H]2CNC(=O)CCC)c1 (relative stereo) [Example 58, (trans)-N-[[2-[(3-Dodecyloxy)phenyl]cyclopropyl]methyl] butanamide] | 5 to 40 | – |
| CCCC(=O)NC[C@@H]1C[C@H]1c1cccc(OCCCCC(C)(C)C#N)c1 (relative stereo) [Example 107] | 40 to 250 | – |
| COc1cccc([C@H]2[C@H](CNC(=O)C(C)C)C2(F)F)c1 (relative stereo) [Example 134, (trans)-N-[[3-(3-Methoxyphenyl)-2,2-difluoro--cycloprop-1-yl]methyl]-2-methylpropanamide] | – | IC50 (Table 6): 40 to 250 nM |
| CCCC(=O)NC[C@@H]1C[C@H]1c1cccc(OCC=C(C)CCC=C(C)C)c1 (relative stereo) [Example 99, (trans)-N-[[2-[3[(3-Dimethylocta-2,6-dien-1-yl)oxy]phenyl]cycloprop-1-yl]methyl] butanamide] | 5 to 40 | – |
| CCCC(=O)NC[C@@H]1C[C@H]1c1cccc(OCCc2cccc(F)c2)c1 (relative stereo) [Example 125, (trans)-N-[[2-[3-[2-(3-Fluorophenyl)ethoxy]phenyl]cycloprop-1-yl]methyl] butanamide] | 5 to 40 | – |
| CCCC(=O)NC[C@@H]1C[C@H]1c1cccc(OCCCCCc2ccccc2)c1 (relative stereo) [Example 110, (trans)-N-[[2-[3-[(5-Phenylpent-1-yl)oxy]phenyl]cycloprop-1-yl]methyl] butanamide] | < 5 | – |
| CC(=O)NC[C@@H]1C[C@H]1c1cccc(C)c1 (relative stereo) [Example 78, (trans)-N-[[2-(3-Methylphenyl)cycloprop-1-yl]methyl] acetamide] | 40 to 250 | – |
| CCCC(=O)NC[C@@H]1C[C@H]1c1cccc(C)c1 (relative stereo) [Example 75, (trans)-N-[[2-(3-Methylphenyl)cycloprop-1-yl]methyl] butanamide] | 5 to 40 | – |

From patent publication US5753709A, “N-acyl-2 aryl cyclopropylmethylamine derivatives as melatonergics” (Bristol-Myers Squibb Company, priority 1996, dated 1998)
